“Also recorded” adds a separate entry of the source.
Experiments:
CDK16 = biological target: T1, CDK16 (Homo sapiens, UniProt Q00536); test: DSF; type: binding; settings: 10 μM compound
T1 construct: purchased in-house DSF panel (SGC Frankfurt)
Outline: (§1)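 Differential scanning fluorimetry follows unfolding of the protein through fluorescence of a dye that depends on folding state. The value is ΔTm, the melting-temperature shift between compound-free and compound-bound protein. Duplicate measurements.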

CDK2 = biological target: T2, CDK2 (Homo sapiens, UniProt P24941); test: DSF; type: binding; settings: 10 μM compound
T2 construct: purchased in-house DSF panel (SGC Frankfurt)
Outline: as §1

CK2A2 = biological target: T3, CK2A2 (Homo sapiens, UniProt P19784); test: DSF; type: binding;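 further: compound tested at 10 µM with 2 µM protein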
T3 construct: purchased in-house DSF panel (SGC Frankfurt)
T3 sequence (P19784 whole entry): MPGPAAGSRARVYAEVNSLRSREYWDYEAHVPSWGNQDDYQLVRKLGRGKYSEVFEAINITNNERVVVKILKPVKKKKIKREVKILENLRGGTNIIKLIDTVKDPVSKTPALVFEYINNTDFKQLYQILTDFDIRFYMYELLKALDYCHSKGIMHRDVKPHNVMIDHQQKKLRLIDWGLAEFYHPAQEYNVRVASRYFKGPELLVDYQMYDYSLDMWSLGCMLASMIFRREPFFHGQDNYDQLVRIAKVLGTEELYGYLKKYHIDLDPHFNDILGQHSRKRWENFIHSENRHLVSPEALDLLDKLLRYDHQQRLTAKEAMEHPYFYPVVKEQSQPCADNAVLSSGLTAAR
Experimental: (§2) Recombinant protein kinase domains with a concentration of 2 μM were mixed with a 10 μM compound solution in DMSO, 20 mM HEPES, pH 7.5, and 500 mM NaCl. SYPRO Orange (5000×, Invitrogen) was added as a fluorescence probe (1 µl per mL). Subsequently, temperature-dependent protein unfolding profiles were measured, using the QuantStudio™ 5 realtime PCR machine (Thermo Fisher, Waltham, MA, USA). […] The temperature was raised with a step rate of 3 °C per minute. Data points were analyzed with the internal software (Thermal Shift SoftwareTM Version 1.4, Thermo Fisher) using the Boltzmann equation to determine the inflection point of the transition curve [56]. Differences in melting temperature are given as ΔTm values in °C. Measurements were performed in duplicates.

EPHA2 = biological target: T4, EPHA2 (Homo sapiens, UniProt P29317); test: DSF; type: binding
T4 construct: purchased in-house DSF panel (SGC Frankfurt)
T4 sequence (P29317 596-900): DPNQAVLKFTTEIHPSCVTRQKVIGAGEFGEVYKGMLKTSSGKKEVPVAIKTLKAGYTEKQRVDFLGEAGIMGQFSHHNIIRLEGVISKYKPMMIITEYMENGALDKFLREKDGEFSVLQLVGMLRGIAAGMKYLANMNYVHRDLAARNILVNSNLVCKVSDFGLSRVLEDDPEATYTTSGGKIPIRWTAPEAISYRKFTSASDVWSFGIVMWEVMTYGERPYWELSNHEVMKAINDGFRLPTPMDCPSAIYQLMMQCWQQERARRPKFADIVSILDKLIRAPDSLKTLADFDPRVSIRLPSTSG
Experimental: as §2

GPRK5 = biological target: T5, GPRK5 (Homo sapiens, UniProt P34947); test: DSF; type: binding
T5 construct: purchased in-house DSF panel (SGC Frankfurt)
T5 sequence (P34947 whole entry): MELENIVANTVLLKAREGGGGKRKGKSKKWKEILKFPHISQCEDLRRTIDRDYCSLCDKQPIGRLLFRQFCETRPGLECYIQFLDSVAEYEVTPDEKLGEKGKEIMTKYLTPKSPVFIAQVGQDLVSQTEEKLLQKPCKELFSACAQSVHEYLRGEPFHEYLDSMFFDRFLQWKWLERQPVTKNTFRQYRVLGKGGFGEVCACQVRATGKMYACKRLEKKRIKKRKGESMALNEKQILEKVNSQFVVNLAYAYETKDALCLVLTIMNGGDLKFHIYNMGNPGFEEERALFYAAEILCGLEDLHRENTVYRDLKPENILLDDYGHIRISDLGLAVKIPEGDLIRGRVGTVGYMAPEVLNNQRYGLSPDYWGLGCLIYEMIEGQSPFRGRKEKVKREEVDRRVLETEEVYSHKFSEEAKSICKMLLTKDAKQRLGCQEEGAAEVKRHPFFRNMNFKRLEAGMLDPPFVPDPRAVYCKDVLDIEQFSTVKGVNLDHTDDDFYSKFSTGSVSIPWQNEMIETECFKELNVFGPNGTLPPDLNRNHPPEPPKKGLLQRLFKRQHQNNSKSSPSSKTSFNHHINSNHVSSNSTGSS
Experimental: as §2

MAP2K4 = biological target: T6, MAP2K4 (Homo sapiens, UniProt P45985); test: DSF; type: binding
T6 construct: purchased in-house DSF panel (SGC Frankfurt)
T6 sequence (P45985 102-367): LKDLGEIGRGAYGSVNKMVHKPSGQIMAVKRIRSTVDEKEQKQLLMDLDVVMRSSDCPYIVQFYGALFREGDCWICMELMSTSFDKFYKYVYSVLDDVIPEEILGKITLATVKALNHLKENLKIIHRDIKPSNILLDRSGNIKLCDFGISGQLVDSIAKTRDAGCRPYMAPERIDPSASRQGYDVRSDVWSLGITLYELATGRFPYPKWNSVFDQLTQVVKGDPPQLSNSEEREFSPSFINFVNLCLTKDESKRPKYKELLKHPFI
Experimental: as §2

MAPK15 = biological target: T7, MAPK15 (Homo sapiens, UniProt Q8TD08); test: DSF; type: binding
T7 construct: purchased in-house DSF panel (SGC Frankfurt)
T7 sequence (Q8TD08 1-346): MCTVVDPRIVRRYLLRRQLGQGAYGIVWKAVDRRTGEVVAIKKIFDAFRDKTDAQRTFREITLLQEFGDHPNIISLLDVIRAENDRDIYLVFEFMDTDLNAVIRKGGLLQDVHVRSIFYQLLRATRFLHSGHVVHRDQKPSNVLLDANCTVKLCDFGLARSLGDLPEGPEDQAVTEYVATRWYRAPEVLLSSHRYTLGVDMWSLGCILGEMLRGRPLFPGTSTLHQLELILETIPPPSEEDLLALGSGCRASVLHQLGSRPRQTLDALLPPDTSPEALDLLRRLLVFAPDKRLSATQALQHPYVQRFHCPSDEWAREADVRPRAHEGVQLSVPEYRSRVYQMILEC
Experimental: as §2

PIM1 = biological target: T8, PIM1 (Homo sapiens, UniProt P11309); test: DSF; type: binding
T8 construct: purchased in-house DSF panel (SGC Frankfurt)
T8 sequence (P11309 whole entry): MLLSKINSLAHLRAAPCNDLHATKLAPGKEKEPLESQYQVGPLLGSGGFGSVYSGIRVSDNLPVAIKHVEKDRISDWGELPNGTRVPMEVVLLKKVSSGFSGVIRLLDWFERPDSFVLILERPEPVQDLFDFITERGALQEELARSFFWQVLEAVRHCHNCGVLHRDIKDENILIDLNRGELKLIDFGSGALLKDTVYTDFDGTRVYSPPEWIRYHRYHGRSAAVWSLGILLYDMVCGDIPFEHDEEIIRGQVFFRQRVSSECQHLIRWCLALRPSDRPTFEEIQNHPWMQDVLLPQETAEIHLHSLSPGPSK
Experimental: as §2

TTK = biological target: T9, TTK (Homo sapiens, UniProt P33981); test: DSF; type: binding;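 further: compound tested at 10 µM with 2 µM protein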
T9 construct: purchased in-house DSF panel (SGC Frankfurt)
T9 sequence (P33981 519-808): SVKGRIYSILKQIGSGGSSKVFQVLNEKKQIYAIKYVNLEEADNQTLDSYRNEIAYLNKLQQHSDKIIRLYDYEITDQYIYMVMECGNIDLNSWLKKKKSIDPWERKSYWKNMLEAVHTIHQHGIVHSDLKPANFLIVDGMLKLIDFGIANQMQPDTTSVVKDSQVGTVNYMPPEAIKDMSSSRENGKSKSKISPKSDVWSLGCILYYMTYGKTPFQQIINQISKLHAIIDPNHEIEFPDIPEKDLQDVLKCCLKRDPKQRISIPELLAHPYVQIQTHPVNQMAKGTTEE
Experimental: as §2

HCT116-FUCCI cells = test: FUCCI cell cycle assay and viability assessment; type: cell-based; settings: for effect on the cell cycle (FUCCI): 1, 5, 10 µM (milciclib 1, 10 µM); for effect on the cell cycle (FUCCI) / pyknosed nuclei: 24 h; for pyknosed nuclei: average; for effect on cell count: 1, 5, 10 µM vs DMSO 0.1 %; for cells compared to the control: after 72 h, vs DMSO 0.1 %
Experimental: This technology enables the detection of cell cycle states (G1, G2/M, or S phase) on a single cell level. Additionally, a viability assessment, as described by Tjaden et. al., was performed using Hoechst33342 as a nuclear marker. […] At 10 µM of the same compound, the pyknosed nuclei rate was even higher, on average 45% (Figure 9C). An increase in cells including a pyknosed nucleus indicate apoptotic cell death, due to typical morphological changes like DNA condensation. […] Milciclib is a published CDK2 inhibitor and was used as a reference compound [55]. […] At later time points, the G2/M phase arrest was no longer detectable (Table S7). This can be explained due to the increasing amount of apoptotic cells.
To validate the influence of the compounds on the cell cycle, a florescent ubiquitination-based cell cycle indicator (FUCCI) assay was performed as described previously. In Brief, HCT116-FUCCI cells, stably expressing the FUCCI system, introduced by the Sleeping Beauty transposon system, were seeded at a density of 1250 cells per well in a 384 well plate (Cell culture microplate, PS, f-bottom, µClear®, 781091, Greiner, Frickenhausen, Germany) in culture medium (50 µL per well) and stained additionally with 60 nM Hoechst33342 (Thermo Scientific). Fluorescence and cellular shape were measured before and after compound treatment for 72 h every 12 h using the CQ1 high-content confocal microscope (Yokogawa, Tokyo, Japan). Compounds were added directly to the cells at three different concentrations (1 µM, 5 µM and 10 µM). The following parameters were used for image acquisition: Ex 405 nm/Em 447/60 nm, 500ms, 50%; Ex 561 nm/Em 617/73 nm, 100 ms, 40%; Ex 488/Em 525/50 nm, 50 ms, 40%; Ex 640 nm/Em 685/40, 50 ms, 20 %; bright field, 300ms, 100% transmission, one centered field per well, 7 z stacks per well with 55 µm spacing. Analysis of images was performed using the CellPathfinder software (Yokogawa). The cell count was normalized against the cell count of cells treated with 0.1% DMSO. All normal gated cells were further classified in cells containing healthy, fragmented or pyknosed nuclei. […] Error bars show SEM of biological duplicates. All data can be found in Table S7.

MAP2K1 = biological target: T10, MAP2K1 (Homo sapiens, UniProt Q02750); test: DSF; type: binding
T10 construct: purchased in-house DSF panel (SGC Frankfurt)
T10 sequence (Q02750 68-361): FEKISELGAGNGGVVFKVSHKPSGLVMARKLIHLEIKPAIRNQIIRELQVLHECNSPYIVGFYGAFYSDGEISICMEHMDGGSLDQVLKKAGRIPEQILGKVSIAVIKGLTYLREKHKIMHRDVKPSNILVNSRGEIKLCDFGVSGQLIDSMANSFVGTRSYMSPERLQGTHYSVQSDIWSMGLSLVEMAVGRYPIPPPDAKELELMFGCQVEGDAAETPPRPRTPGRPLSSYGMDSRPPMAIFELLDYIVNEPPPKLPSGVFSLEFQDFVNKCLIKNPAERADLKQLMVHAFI
Experimental: as §2

RPS6KA6 = test: DSF; type: binding
Experimental: as §2

T1 sequence (Q00536 163-478): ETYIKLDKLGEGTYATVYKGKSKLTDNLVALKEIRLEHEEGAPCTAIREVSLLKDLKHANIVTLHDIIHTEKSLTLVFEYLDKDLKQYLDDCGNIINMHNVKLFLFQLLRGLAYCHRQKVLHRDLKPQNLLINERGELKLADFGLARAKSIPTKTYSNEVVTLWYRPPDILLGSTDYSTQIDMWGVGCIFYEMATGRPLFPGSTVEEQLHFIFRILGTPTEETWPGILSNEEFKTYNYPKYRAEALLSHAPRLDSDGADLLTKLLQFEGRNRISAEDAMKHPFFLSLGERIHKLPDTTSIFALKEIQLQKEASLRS

| Compound | ΔTm at 10 µM (CDK16) [°C] | ΔTm at 10 µM (CDK2) [°C] | ΔTm CK2A2 (CK2A2) [°C] | ΔTm EPHA2 (EPHA2) [°C] | ΔTm GPRK5 (GPRK5) [°C] | ΔTm MAP2K4 (MAP2K4) [°C] | ΔTm MAPK15 (MAPK15) [°C] | ΔTm PIM1 (PIM1) [°C] | ΔTm TTK (TTK) [°C] | effect on the cell cycle (FUCCI) (HCT116-FUCCI cells) | pyknosed nuclei (HCT116-FUCCI cells; 1 µM) [%] | pyknosed nuclei (HCT116-FUCCI cells; 10 µM) [%] | effect on cell count (HCT116-FUCCI cells) | cells compared to the control (HCT116-FUCCI cells) | ΔTm MAP2K1 (MAP2K1) [°C] | ΔTm RPS6KA6 (RPS6KA6) [°C] |
| --- | --- | --- | --- | --- | --- | --- | --- | --- | --- | --- | --- | --- | --- | --- | --- | --- |
| CC(C)OC(=O)c1cc(Nc2ccnc(NCc3ccc(NC(=O)OC(C)(C)C)cc3)n2)n[nH]1 [42d, isopropyl 3-((2-((4-((tert-butoxycarbonyl)amino)benzyl)amino)pyrimidin-4-yl)amino)-1H-pyrazole-5-carboxylate] | 8.4 | 3 | 1.1 | 0.6 | -1.3 | 0.4 | 7.0 | 0.2 | -0.1 | accumulation of cells in G2/M phases | – | – | – | – | – | – |
| CC(C)(C)OC(=O)Nc1ccc(CNc2nccc(Nc3cc(C(=O)OC(C)(C)C)[nH]n3)n2)cc1 [43d, tert-butyl 3-((2-((4-((tert-butoxycarbonyl)amino)benzyl)amino)pyrimidin-4-yl)amino)-1H-pyrazole-5-carboxylate] | 9.2 | 3.2 | 1.1 | 1.3 | -1.4 | 1.0 | 5.8 | -0.7 | -0.2 | G2/M phase cell cycle arrest; also recorded: accumulation of cells in G2/M phases | 10 | 45 | decreased the cell count in a dose-dependent manner | less than 50% | – | – |
| COC(=O)c1cc(Nc2ccnc(NCCOCCNC(=O)OC(C)(C)C)n2)[nH]n1 [21d, methyl 5-((2-((2-(2-((tert-butoxycarbonyl)amino)ethoxy)ethyl)amino)pyrimidin-4-yl)amino)-1H-pyrazole-3-carboxylate] | 4.3 | 1.9 | 1.8 | 0.2 | 0.2 | 0.9 | 4.1 | 2.1 | 1.6 | – | – | – | – | – | 0.7 | -0.3 |
| N#CCc1ccc(Nc2nccc(Nc3cc(C4CC4)[nH]n3)n2)cc1 [compound 1, reference compound] | 10.3 | 15.2 | 8.5 | 8.4 | 5.2 | 10.0 | 17.4 | 3.3 | 8.8 | no effect on the cell cycle | – | – | – | – | 1.4 | 0.4 |
| COC(=O)c1cc(Nc2ccnc(NCc3ccc(NC(=O)OC(C)(C)C)cc3)n2)[nH]n1 [21i, methyl 5-((2-((4-((tert-butoxycarbonyl)amino)benzyl)amino)pyrimidin-4-yl)amino)-1H-pyrazole-3-carboxylate] | 6.5 | 3.3 | 1.3 | 0.4 | 0.7 | 2.4 | 5.9 | -0.6 | 0.0 | accumulation of cells in G2/M phases | – | – | decreased the cell count | less than 50% | -0.5 | -0.3 |

— paper PMC9736855, “Discovery of 3-Amino-1H-pyrazole-Based Kinase Inhibitors to Illuminate the Understudied PCTAIRE Family” (International Journal of Molecular Sciences, 2022)
